Measurements as given in patent US10988477B2 (Merck Patent GmbH, priority 2018, dated 2021).
Where a name gives a salt, the structure may show the parent alone.

Experiments:
GCN2 kinase = GCN2 kinase (Homo sapiens, UniProt Q9P2K8); test: GCN2 enzyme inhibition assay (Transcreener ADP2 fluorescence polarization); type: biochemical; settings: compounds of Formula II; 280 μM ATP, 4 nM GCN2 kinase
Summary of the method: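 Human GCN2 (4 nM) preincubated 10 min with compound (0–8 μM) and 200 μM (RS)7 peptide in Tris-HCl pH 7.5, NaCl, MgCl2, DTT. Reaction started with 280 μM ATP, run 1 h at 25 °C. ADP detected by Transcreener fluorescence polarization. IC50 and Ki(app) fitted by tight-binding algorithm.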

[1] = target: intracellular GCN2 (phosphorylation of the GCN2 substrate eIF2α) (Homo sapiens, UniProt Q9P2K8); test: GCN2 cellular inhibition assay (AlphaScreen SureFire P-eIF2α Ser51, borrelidin-treated U2OS cells); type: cell-based; settings: compounds of Formula II; biomarker assay, phosphorylated eIF2α Ser51 in borrelidin-treated U2OS cells
Summary of the method: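 U2OS cells adhered overnight, then treated with compounds (4-fold serial dilutions from 40 μM final) plus borrelidin 10 μM final for 1 h at 37 °C. Lysate eIF2α Ser51 phosphorylation measured by AlphaScreen SureFire. Percent inhibition calculated relative to borrelidin-only wells.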

Chain of intracellular GCN2 (phosphorylation of the GCN2 substrate eIF2α) (Q9P2K8 whole entry): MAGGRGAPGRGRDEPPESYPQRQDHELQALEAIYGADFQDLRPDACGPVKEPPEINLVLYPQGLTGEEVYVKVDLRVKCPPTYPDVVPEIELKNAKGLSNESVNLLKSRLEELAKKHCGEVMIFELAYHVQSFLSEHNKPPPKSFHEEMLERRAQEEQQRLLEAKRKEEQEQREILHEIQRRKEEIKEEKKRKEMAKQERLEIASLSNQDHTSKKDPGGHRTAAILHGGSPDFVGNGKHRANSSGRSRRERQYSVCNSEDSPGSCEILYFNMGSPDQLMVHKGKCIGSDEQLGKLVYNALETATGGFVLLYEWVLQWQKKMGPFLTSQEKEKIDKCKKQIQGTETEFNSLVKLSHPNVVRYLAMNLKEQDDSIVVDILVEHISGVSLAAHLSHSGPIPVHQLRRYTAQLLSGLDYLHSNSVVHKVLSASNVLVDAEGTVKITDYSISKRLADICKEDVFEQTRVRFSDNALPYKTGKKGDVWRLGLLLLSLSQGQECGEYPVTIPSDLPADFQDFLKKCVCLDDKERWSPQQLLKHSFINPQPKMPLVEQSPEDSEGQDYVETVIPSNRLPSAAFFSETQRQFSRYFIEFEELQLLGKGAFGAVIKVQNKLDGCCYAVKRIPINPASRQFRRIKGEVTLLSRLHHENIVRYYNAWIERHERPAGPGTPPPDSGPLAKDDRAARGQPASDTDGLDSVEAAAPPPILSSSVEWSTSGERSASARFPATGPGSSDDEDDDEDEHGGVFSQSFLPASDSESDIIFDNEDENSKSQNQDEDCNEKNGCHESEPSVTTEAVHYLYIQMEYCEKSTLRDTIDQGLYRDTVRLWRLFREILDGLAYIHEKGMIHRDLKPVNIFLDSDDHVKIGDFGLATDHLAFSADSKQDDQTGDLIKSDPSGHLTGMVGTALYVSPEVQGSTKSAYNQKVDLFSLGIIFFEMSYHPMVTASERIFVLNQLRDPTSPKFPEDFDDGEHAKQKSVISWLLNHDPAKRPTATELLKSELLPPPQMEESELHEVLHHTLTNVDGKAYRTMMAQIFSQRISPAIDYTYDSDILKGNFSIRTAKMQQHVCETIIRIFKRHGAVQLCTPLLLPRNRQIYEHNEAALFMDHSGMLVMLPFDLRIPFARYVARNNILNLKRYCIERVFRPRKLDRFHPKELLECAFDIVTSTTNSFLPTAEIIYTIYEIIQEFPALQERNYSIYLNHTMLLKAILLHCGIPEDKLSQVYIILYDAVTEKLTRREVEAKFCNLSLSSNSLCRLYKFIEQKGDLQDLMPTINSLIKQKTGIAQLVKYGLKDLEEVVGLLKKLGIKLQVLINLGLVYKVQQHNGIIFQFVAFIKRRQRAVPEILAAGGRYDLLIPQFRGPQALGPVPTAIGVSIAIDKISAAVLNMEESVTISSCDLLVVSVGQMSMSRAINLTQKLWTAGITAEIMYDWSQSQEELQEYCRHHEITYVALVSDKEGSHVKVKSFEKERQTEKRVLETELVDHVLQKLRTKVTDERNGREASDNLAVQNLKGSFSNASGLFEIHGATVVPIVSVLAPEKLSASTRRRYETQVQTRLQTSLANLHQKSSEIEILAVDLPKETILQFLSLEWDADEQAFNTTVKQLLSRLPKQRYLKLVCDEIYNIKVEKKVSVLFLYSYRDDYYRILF
Chain of GCN2 kinase (Q9P2K8 whole entry): as above

SMILES: FC(F)c1ccc2ncc(-c3cc(C4CCCN(C5COC5)C4)ncn3)n2n1 (stereo not drawn) [II-180, 6-(Difluoromethyl)-3-(6-(1-(oxetan-3-yl)piperidin-3-yl)pyrimidin-4-yl)imidazo[1,2-b]pyridazine]
- Ki (GCN2 kinase): 10 to 1000 nM
- IC50 [1]: > 5 µM

SMILES: CS(=O)(=O)N1CC2CCN(c3cc(-c4cnc5ccc(C(F)F)nn45)ncn3)CC21 (stereo not drawn) [II-181, 6-(Difluoromethyl)-3-(6-(8-(methylsulfonyl)-3,8-diazabicyclo[4.2.0]octan-3-yl)pyrimidin-4-yl)imidazo[1,2-b]pyridazine]
- Ki (GCN2 kinase): > 1000 nM
- IC50 [1]: > 5 µM

SMILES: CC(=O)N1CCN(c2cc(-c3cnc4ccc(OC(F)F)nn34)ccn2)CC1 [II-182, 1-(4-(4-(6-(Difluoromethoxy)imidazo[1,2-b]pyridazin-3-yl)pyridin-2-yl)piperazin-1-yl)ethanone]
- Ki (GCN2 kinase): 10 to 1000 nM
- IC50 [1]: > 5 µM

SMILES: Cc1ccc2ncc(-c3ccnc(N4CCCC(CNS(C)(=O)=O)C4)c3)n2n1 (stereo not drawn) [II-183, N-((1-(4-(6-Methylimidazo[1,2-b]pyridazin-3-yl)pyridin-2-yl)piperidin-3-yl)methyl)methanesulfonamide]
- Ki (GCN2 kinase): 10 to 1000 nM
- IC50 [1]: 0.5 to 5 µM

SMILES: CS(=O)(=O)NCC1CN(c2cc(-c3cnc4ccc(Cl)nn34)ccn2)CCO1 (stereo not drawn) [II-184, N-((4-(4-(6-Chloroimidazo[1,2-b]pyridazin-3-yl)pyridin-2-yl)morpholin-2-yl)methyl)methanesulfonamide]
- Ki (GCN2 kinase): 10 to 1000 nM
- IC50 [1]: 0.5 to 5 µM

SMILES: CC(=O)N1CCN(c2cc(-c3cnc4ccc(CO)nn34)ccn2)CC1 [II-185, 1-(4-(4-(6-(Hydroxymethyl)imidazo[1,2-b]pyridazin-3-yl)pyridin-2-yl)piperazin-1-yl)ethanone]
- Ki (GCN2 kinase): 10 to 1000 nM
- IC50 [1]: > 5 µM

SMILES: CC(=O)N1CCN(c2cc(-c3cnc4ccc(C(F)F)nn34)ncn2)CC1 [II-186, 1-(4-(6-(6-(Difluoromethyl)imidazo[1,2-b]pyridazin-3-yl)pyrimidin-4-yl)piperazin-1-yl)ethan-1-one]
- Ki (GCN2 kinase): 10 to 1000 nM
- IC50 [1]: 0.5 to 5 µM

SMILES: O=C1CCN(c2cc(-c3cnc4ccc(Cl)nn34)ccn2)CCN1 [II-187, 1-(4-(6-Chloroimidazo[1,2-b]pyridazin-3-yl)pyridin-2-yl)-1,4-diazepan-5-one]
- Ki (GCN2 kinase): 10 to 1000 nM
- IC50 [1]: > 5 µM

SMILES: Clc1ccc2ncc(-c3ccnc(N4CCC5CNCC5C4)c3)n2n1 (stereo not drawn) [II-188]
- Ki (GCN2 kinase): 10 to 1000 nM
- IC50 [1]: 0.5 to 5 µM

SMILES: NC(=O)[C@H]1CCCN(c2cc(-c3cnc4ccc(Cl)nn34)ccn2)C1 [II-189, (S)-1-(4-(6-Chloroimidazo[1,2-b]pyridazin-3-yl)pyridin-2-yl)piperidine-3-carboxamide]
- Ki (GCN2 kinase): 10 to 1000 nM
- IC50 [1]: 0.5 to 5 µM

SMILES: O=C(NCCO)C1CCCN(c2cc(-c3cnc4ccc(C(F)F)nn34)ncn2)C1 (stereo not drawn) [II-191, 1-(6-(6-(Difluoromethyl)imidazo[1,2-b]pyridazin-3-yl)pyrimidin-4-yl)-N-(2-hydroxyethyl)piperidine-3-carboxamide]
- Ki (GCN2 kinase): 10 to 1000 nM
- IC50 [1]: > 5 µM

SMILES: NS(=O)(=O)C1CCN(c2cc(-c3cnc4ccc(C(F)F)nn34)ncn2)C1 (stereo not drawn) [II-192, 1-(6-(6-(Difluoromethyl)imidazo[1,2-b]pyridazin-3-yl)pyrimidin-4-yl)pyrrolidine-3-sulfonamide]
- Ki (GCN2 kinase): 10 to 1000 nM
- IC50 [1]: > 5 µM

SMILES: CC(=O)N1CCN(c2cc(-c3cnc4ccc(C)nn34)ccn2)CC1 [II-193, 1-(4-(4-(6-Methylimidazo[1,2-b]pyridazin-3-yl)pyridin-2-yl)piperazin-1-yl)ethanone]
- Ki (GCN2 kinase): 10 to 1000 nM
- IC50 [1]: > 5 µM

SMILES: Clc1ccc2ncc(-c3ccnc(N4CCOCC4)c3)n2n1 [II-194, 4-(4-(6-Chloroimidazo[1,2-b]pyridazin-3-yl)pyridin-2-yl)morpholine]
- Ki (GCN2 kinase): 10 to 1000 nM
- IC50 [1]: > 5 µM

SMILES: CN1CCN(c2cc(-c3cnc4ccc(Cl)nn34)ccn2)CC1 [II-195, 6-Chloro-3-(2-(4-methylpiperazin-1-yl)pyridin-4-yl)imidazo[1,2-b]pyridazine]
- Ki (GCN2 kinase): 10 to 1000 nM
- IC50 [1]: > 5 µM

SMILES: CCc1ccc2ncc(-c3cc(N4CCO[C@H](CNS(C)(=O)=O)C4)ncn3)n2n1 [II-196, (S)—N-((4-(6-(6-Ethylimidazo[1,2-b]pyridazin-3-yl)pyrimidin-4-yl)morpholin-2-yl)methyl)methanesulfonamide]
- Ki (GCN2 kinase): 10 to 1000 nM
- IC50 [1]: > 5 µM

SMILES: C[C@@H]1CO[C@H](CNS(C)(=O)=O)CN1c1cc(-c2cnc3ccc(C(F)F)nn23)ncn1 [II-197, N-(((2S,5R)-4-(6-(6-(Difluoromethyl)imidazo[1,2-b]pyridazin-3-yl)pyrimidin-4-yl)-5-methylmorpholin-2-yl)methyl)methanesulfonamide]
- Ki (GCN2 kinase): < 10 nM
- IC50 [1]: < 0.5 µM

SMILES: COC1CC(CNS(C)(=O)=O)CN(c2cc(-c3cnc4ccc(C(F)F)nn34)ncn2)C1 (stereo not drawn) [II-198, N-((1-(6-(6-(Difluoromethyl)imidazo[1,2-b]pyridazin-3-yl)pyrimidin-4-yl)-5-methoxypiperidin-3-yl)methyl)methanesulfonamide]
- Ki (GCN2 kinase): 10 to 1000 nM
- IC50 [1]: > 5 µM

SMILES: CS(=O)(=O)NC1CCN(c2cc(-c3cnc4ccc(C(F)F)nn34)ncn2)C1 (stereo not drawn) [II-199, N-(1-(6-(6-(Difluoromethyl)imidazo[1,2-b]pyridazin-3-yl)pyrimidin-4-yl)pyrrolidin-3-yl)methanesulfonamide]
- Ki (GCN2 kinase): 10 to 1000 nM
- IC50 [1]: > 5 µM

SMILES: O=C1NCC2CCN(c3cc(-c4cnc5ccc(C(F)F)nn45)ncn3)CC12 (stereo not drawn) [II-200, 5-(6-(6-(Difluoromethyl)imidazo[1,2-b]pyridazin-3-yl)pyrimidin-4-yl)octahydro-3H-pyrrolo[3,4-c]pyridin-3-one]
- Ki (GCN2 kinase): 10 to 1000 nM
- IC50 [1]: > 5 µM

SMILES: C[C@@H]1CN(c2cc(-c3cnc4ccc(C(F)F)nn34)ncn2)CC(C(N)=O)O1 (stereo partly drawn) [II-201, (6R)-4-(6-(6-(Difluoromethyl)imidazo[1,2-b]pyridazin-3-yl)pyrimidin-4-yl)-6-methylmorpholine-2-carboxamide]
- Ki (GCN2 kinase): 10 to 1000 nM
- IC50 [1]: > 5 µM

SMILES: NS(=O)(=O)NCC1CCCN(c2cc(-c3cnc4ccc(C(F)F)nn34)ncn2)C1 (stereo not drawn) [II-202, 1-((1-(6-(6-(Difluoromethyl)imidazo[1,2-b]pyridazin-3-yl)pyrimidin-4-yl)piperidin-3-yl)methyl)sulfuric diamide]
- Ki (GCN2 kinase): < 10 nM
- IC50 [1]: < 0.5 µM

SMILES: FC(F)c1ccc2ncc(-c3cc(N4CCC(c5c[nH]cn5)C4)ncn3)n2n1 (stereo not drawn) [II-203, 3-(6-(3-(1H-imidazol-4-yl)pyrrolidin-1-yl)pyrimidin-4-yl)-6-(difluoromethyl)imidazo[1,2-b]pyridazine]
- Ki (GCN2 kinase): 10 to 1000 nM
- IC50 [1]: > 5 µM

SMILES: COc1ccc2ncc(-c3ccnc(N4CCN(C(C)=O)CC4)c3)n2n1 [II-204, 1-(4-(4-(6-Methoxyimidazo[1,2-b]pyridazin-3-yl)pyridin-2-yl)piperazin-1-yl)ethan-1-one trifluoroacetate]
- Ki (GCN2 kinase): 10 to 1000 nM
- IC50 [1]: > 5 µM

SMILES: NC(=O)c1cc(C2CCCN(c3cc(-c4cnc5ccc(C(F)F)nn45)ncn3)C2)n[nH]1 (stereo not drawn) [II-205, 3-(1-(6-(6-(Difluoromethyl)imidazo[12-b]pyridazin-3-yl)pyrimidin-4-yl)piperidin-3-yl)-1H-pyrazole-5-carboxamide]
- Ki (GCN2 kinase): 10 to 1000 nM
- IC50 [1]: 0.5 to 5 µM

SMILES: CS(=O)(=O)N1CCN(C(=O)C2CCCN(c3cc(-c4cnc5ccc(C(F)F)nn45)ncn3)C2)CC1 (stereo not drawn) [II-206, (1-(6-(6-(Difluoromethyl)imidazo[1,2-b]pyridazin-3-yl)pyrimidin-4-yl)piperidin-3-yl)(4-(methylsulfonyl)piperazin-1-yl)methanone]
- Ki (GCN2 kinase): 10 to 1000 nM
- IC50 [1]: > 5 µM

SMILES: O=C1CCCC2CN(c3cc(-c4cnc5ccc(Cl)nn45)ccn3)CCN12 (stereo not drawn) [II-207, 2-(4-(6-Chloroimidazo[1,2-b]pyridazin-3-yl)pyridin-2-yl)hexahydro-1H-pyrido[1,2-a]pyrazin-6(2H)-one]
- Ki (GCN2 kinase): 10 to 1000 nM
- IC50 [1]: > 5 µM

SMILES: CC(=O)N1CCN(c2cc(-c3cnc4ccc(Cl)nn34)ccn2)CC1 [II-208, 1-(4-(4-(6-Chloroimidazo[1,2-b]pyridazin-3-yl)pyridin-2-yl)piperazin-1-yl)ethanone]
- Ki (GCN2 kinase): 10 to 1000 nM
- IC50 [1]: > 5 µM

SMILES: COCC(=O)NCCC1CCCN(c2cc(-c3cnc4ccc(C(F)F)nn34)ncn2)C1 (stereo not drawn) [II-209, N-(2-(1-(6-(6-(Difluoromethyl)imidazo[1,2-b]pyridazin-3-yl)pyrimidin-4-yl)piperidin-3-yl)ethyl)-2-methoxyacetamide]
- Ki (GCN2 kinase): 10 to 1000 nM
- IC50 [1]: > 5 µM

SMILES: NC(=O)C1COCCN(c2cc(-c3cnc4ccc(C(F)F)nn34)ncn2)C1 (stereo not drawn) [II-210, 4-(6-(6-(Difluoromethyl)imidazo[1,2-b]pyridazin-3-yl)pyrimidin-4-yl)-1,4-oxazepane-6-carboxamide]
- Ki (GCN2 kinase): 10 to 1000 nM
- IC50 [1]: > 5 µM

SMILES: O=C1CCC2(CCN(c3cc(-c4cnc5ccc(C(F)F)nn45)ncn3)CC2)CN1 [II-211, 9-(6-(6-(Difluoromethyl)imidazo[1,2-b]pyridazin-3-yl)pyrimidin-4-yl)-2,9-diazaspiro[5.5]undecan-3-one]
- Ki (GCN2 kinase): 10 to 1000 nM
- IC50 [1]: 0.5 to 5 µM

SMILES: NC(=O)CCC1CCN(c2cc(-c3cnc4ccc(C(F)F)nn34)ncn2)CC1 [II-212, 3-(1-(6-(6-(Difluoromethyl)imidazo[1,2-b]pyridazin-3-yl)pyrimidin-4-yl)piperidin-4-yl)propanamide]
- Ki (GCN2 kinase): 10 to 1000 nM
- IC50 [1]: 0.5 to 5 µM

SMILES: CC1(C)CN(c2cc(-c3cnc4ccc(C(F)F)nn34)ncn2)CC1CNS(C)(=O)=O (stereo not drawn) [II-213, N-((1-(6-(6-(Difluoromethyl)imidazo[1,2-b]pyridazin-3-yl)pyrimidin-4-yl)-4,4-dimethylpyrrolidin-3-yl)methyl)methanesulfonamide]
- Ki (GCN2 kinase): < 10 nM
- IC50 [1]: 0.5 to 5 µM
